Measurements taken from article PMC5829263, “Homoarginine and inhibition of human arginase activity: kinetic characterization and biological relevance” (Scientific Reports, 2018).
“And” between values parts separate entries of the source, which are not always exact repeats. Equal values may be shown once. “Also recorded” adds a separate entry of the source.

Assays:
[1] = test system: arginase 1; experiment: HOMOARG as a substrate for arginase 1, formation of LYS by UPLC-MS; format: biochemical, human; conditions: LYS limit of detection 0.3 µM
[2] = test system: arginase 2; experiment: HOMOARG as a substrate for arginase 2, formation of LYS by UPLC-MS; format: biochemical, human; conditions: LYS limit of detection 0.3 µM
[3] = biological target: arginase 1; conditions: arginase 1 inhibition; ref Ikemoto et al. 12; cited from earlier work
[4] = biological target: arginase 2; conditions: arginase 2 inhibition; ref Colleluori and Ash 17; cited from earlier work
[5] = biological target: T1, recombinant human arginase 1 (Homo sapiens, UniProt P05089); experiment: Arginase 1 inhibition, UPLC-MS measurement of ARG to ORN conversion in HEK293T cell lysate; conditions: for % of control activity at the corresponding [Inhibitor] ± SE: mean of two experiments;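 for all read-outs here: arginase 1–expressing HEK293T lysate at 0.05 mg/mL in pH 7.4 phosphate buffer, inhibitor preincubated 5 min with enzyme, then reaction started by adding ARG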
T1 sequence (P05089 1-322): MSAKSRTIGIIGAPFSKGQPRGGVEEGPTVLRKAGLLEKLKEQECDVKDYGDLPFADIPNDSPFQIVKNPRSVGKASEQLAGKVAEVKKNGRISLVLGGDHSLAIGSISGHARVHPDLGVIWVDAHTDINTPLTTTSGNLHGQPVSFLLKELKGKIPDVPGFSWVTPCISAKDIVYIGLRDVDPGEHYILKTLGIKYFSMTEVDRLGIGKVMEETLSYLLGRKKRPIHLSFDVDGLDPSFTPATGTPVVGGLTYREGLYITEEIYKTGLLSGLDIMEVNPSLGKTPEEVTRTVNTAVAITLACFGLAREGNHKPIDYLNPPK
Protocol: (§1) Following a 5-min pre-equilibration period reactions were initiated by the addition of the cell lysate solution in 0.05 M phosphate buffer to a pre-equilibrated aqueous solution of the substrate (ARG).
(§2) The samples were vortex mixed (20 sec) and cooled in an ice/water bath for 10 min prior to centrifugation (5 min, 18,000 × g, room temperature) to precipitate the proteins. An aliquot of the supernatant layer was diluted with a 7:3 mobile phase A/mobile phase B solution into glass UPLC vial inserts.
(§3) Incubation mixtures comprised of HEK293T cell lysate expressing arginase 1 (0.05 mg/mL) or arginase 2 (0.1 mg/mL), phosphate buffer (0.05 M, pH 7.4), inhibitor (0, 0.1, 1, 10, 100, 1000 or 10000 μM) and ARG (0.1, 2 or 3 mM). Following a 5-min pre-incubation of the potential inhibitor with arginase 1 or arginase 2, reactions were initiated by the addition of a pre-equilibrated solution of the substrate ARG.
Ki values were derived from fitting the competitive inhibition equation to experimental data. Ki data are the mean of three singlicate experiments.

[6] = biological target: T2, recombinant human arginase 2 (Homo sapiens, UniProt P78540); experiment: Arginase 2 inhibition, UPLC-MS measurement of ARG to ORN conversion in HEK293T cell lysate; conditions: for % of control activity at the corresponding [Inhibitor] ± SE: mean of two experiments;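 for all read-outs here: HEK293T lysate carrying arginase 2 at 0.1 mg/mL in 0.05 M phosphate buffer pH 7.4, inhibitor preincubated with enzyme 5 min before ARG addition started the reaction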
T2 sequence (P78540 23-354): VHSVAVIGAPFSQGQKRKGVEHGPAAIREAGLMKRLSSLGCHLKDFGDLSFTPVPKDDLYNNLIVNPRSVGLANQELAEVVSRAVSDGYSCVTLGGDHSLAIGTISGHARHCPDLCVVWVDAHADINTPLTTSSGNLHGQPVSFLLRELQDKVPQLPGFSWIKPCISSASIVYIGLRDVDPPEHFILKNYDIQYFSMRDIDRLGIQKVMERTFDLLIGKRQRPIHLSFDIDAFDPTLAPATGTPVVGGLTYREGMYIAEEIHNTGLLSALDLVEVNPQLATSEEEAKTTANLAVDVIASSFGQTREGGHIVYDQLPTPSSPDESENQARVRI
Protocol: as §1, §2, §3
Sample were diluted 3:17 in mobile phase solution prior injection.

## N=C(N)NCCCC[C@H](N)C(=O)O [HOMOARG, homoarginine]
[1]
  substrate activity, formation of LYS from HOMOARG: could not detect; also recorded: not a substrate
[2]
  substrate activity, formation of LYS from HOMOARG: could not detect; also recorded: not a substrate
[3]
  Ki: 5 to 5.2 mM
[4]
  Ki: 39 mM
[5]; ARG 100 µM (physiological), inhibitor 1 mM
  inhibition of arginase 1 activity: 30%
[5]; ARG 100 µM (physiological), inhibitor 10 mM
  inhibition of arginase 1 activity: 76%
[5]; ARG 3 mM (Km), inhibitor 1 mM
  inhibition of arginase 1 activity: 14%
[5]; ARG 3 mM (Km), inhibitor 10 mM
  inhibition of arginase 1 activity: 50%
[5]; LYS 100–1000 µM, HOMOARG 1–10 µM
  inhibitory effect on arginase 1 activity at physiological inhibitor concentrations: no significant inhibitory effects
[5]; arginase 1, ARG 100 µM, inhibitor 1 µM
  % of control activity at the corresponding [Inhibitor] ± SE: 112 ± 4%
[5]; arginase 1, ARG 100 µM, inhibitor 10 µM
  % of control activity at the corresponding [Inhibitor] ± SE: 107 ± 4%
[5]; arginase 1, ARG 100 µM, inhibitor 100 µM
  % of control activity at the corresponding [Inhibitor] ± SE: 85 ± 1%
[5]; arginase 1, ARG 100 µM, inhibitor 1,000 µM
  % of control activity at the corresponding [Inhibitor] ± SE: 70 ± 1%
[5]; arginase 1, ARG 100 µM, inhibitor 10,000 µM
  % of control activity at the corresponding [Inhibitor] ± SE: 24 ± 8%
[5]; arginase 1, ARG 3 mM, inhibitor 1 µM
  % of control activity at the corresponding [Inhibitor] ± SE: 106 ± 7%
[5]; arginase 1, ARG 3 mM, inhibitor 10 µM
  % of control activity at the corresponding [Inhibitor] ± SE: 110 ± 1%
[5]; arginase 1, ARG 3 mM, inhibitor 100 µM
  % of control activity at the corresponding [Inhibitor] ± SE: 96 ± 6%
[5]; arginase 1, ARG 3 mM, inhibitor 1,000 µM
  % of control activity at the corresponding [Inhibitor] ± SE: 86 ± 13%
[5]; arginase 1, ARG 3 mM, inhibitor 10,000 µM
  % of control activity at the corresponding [Inhibitor] ± SE: 50 ± 1%
[5]; arginase 1, physiological HOMOARG concentrations (1–10 µM)
  activity retained vs. control: 90%
[5]; arginase 1, poorly fit by uncompetitive, noncompetitive and mixed models
  inhibition model fitting the data: competitive
[5]; read-out: IC50 ( ± SE), arginase 1, ARG 3 mM
  IC50: 8.14 ± 0.52 mM
[5]; read-out: Ki ( ± SE), arginase 1, competitive inhibition model, ARG 0.6–15 mM
  Ki: 6.1 ± 0.5 mM
[6]; ARG 100 µM, inhibitor 1 mM
  inhibition of arginase 2: 47%
[6]; ARG 100 µM, inhibitor 10 mM
  inhibition of arginase 2: 88%
[6]; arginase 2, ARG 100 µM, inhibitor 1 µM
  % of control activity at the corresponding [Inhibitor] ± SE: 107 ± 2%
[6]; arginase 2, ARG 100 µM, inhibitor 10 µM
  % of control activity at the corresponding [Inhibitor] ± SE: 105 ± 5%
[6]; arginase 2, ARG 100 µM, inhibitor 100 µM
  % of control activity at the corresponding [Inhibitor] ± SE: 100 ± 5%
[6]; arginase 2, ARG 100 µM, inhibitor 1,000 µM
  % of control activity at the corresponding [Inhibitor] ± SE: 53 ± 4%
[6]; arginase 2, ARG 100 µM, inhibitor 10,000 µM
  % of control activity at the corresponding [Inhibitor] ± SE: 12 ± 5%
[6]; arginase 2, ARG 2 mM, inhibitor 1 µM
  % of control activity at the corresponding [Inhibitor] ± SE: 95 ± 3%
[6]; arginase 2, ARG 2 mM, inhibitor 10 µM
  % of control activity at the corresponding [Inhibitor] ± SE: 106 ± 2%
[6]; arginase 2, ARG 2 mM, inhibitor 100 µM
  % of control activity at the corresponding [Inhibitor] ± SE: 94 ± 2%
[6]; arginase 2, ARG 2 mM, inhibitor 1,000 µM
  % of control activity at the corresponding [Inhibitor] ± SE: 72 ± 1%
[6]; arginase 2, ARG 2 mM, inhibitor 10,000 µM
  % of control activity at the corresponding [Inhibitor] ± SE: 15 ± 8%
[6]; arginase 2, physiological HOMOARG concentrations (1–10 µM)
  activity retained vs. control: 90%
[6]; arginase 2, poorly fit by uncompetitive, noncompetitive and mixed models
  inhibition model fitting the data: competitive
[6]; physiological LYS and HOMOARG concentrations
  inhibition of arginase 2 at physiological inhibitor concentrations: no significant inhibition
[6]; read-out: IC50 ( ± SE), arginase 2, ARG 2 mM
  IC50: 2.5 mM and 2.52 mM
[6]; read-out: Ki ( ± SE), arginase 2, competitive inhibition model, ARG 0.5–8 mM
  Ki: 1.7 mM and 1.73 mM
